Assays:
PC3 cells [1] = assay: K3F21/docetaxel co-administration, MTT and CompuSyn, PC3; assay type: cell-based, Human; conditions: PC3, K3F21/DTX combinations
Experimental: (§1) The inhibition of cell proliferation was measured by colorimetric MTT assay and the concentration at which cellular growth is inhibited by 50% (GI50) was determined. Briefly, cells were seeded into 96-well plates at a density of 2000 cells/well. The following day, cells were treated with the indicated compounds and analyzed for cell viability after 48 h. 5 mg/mL thiazolyl blue tetrazolium bromide (Sigma-Aldrich, St. Louis, MO, USA) was added to each well at a final concentration of 0.5 mg/mL and the plates were incubated at 37 °C for 2 h. Medium containing unconverted MTT was removed and 100 µL MTT solvent (4 mM HCl, 0.1% NP-40 in isopropyl alcohol) was added to each well. The plate was gently rotated on an orbital shaker in the dark for 15 min, before the measurements of absorbance at 570 nm. The viability of untreated cells was arbitrarily set at 100%.
(§2) The ability of K3F21 and docetaxel to act synergistically with regard to growth inhibition was determined using CompuSyn software (ComboSyn, Inc., freely available at http://www.combosyn.com). Combination index (CI) and drug reduction index (DRI) were calculated for each concentration of drugs mixture, as indicated in the text. CI <1, =1 or >1 indicates synergism, additive effect, or antagonism, respectively. DRI >1 or <1 indicates favorable or not favorable dose-reduction.

[2] = Lipophilicity (data not shown); assay type: physicochemical
HCT116 cells = assay: MTT cell viability assay, HCT116; assay type: cell-based, Human; conditions: HCT116, 48 h
Experimental: Human prostate cancer PC3 cells (CRL 1435, ATCC, Manassas, VA, USA) were grown in Ham’s F12 nutrient medium, human prostate cancer DU145 cells (HTB-81, ATCC, Manassas, VA, USA) in RPMI 1640 medium and human colorectal carcinoma HCT116 cells (CCL-247, ATCC, Manassas, VA, USA) in IMDM medium. All media (Biowest, Nuaillé, France) were supplemented with 10% Foetal Bovine Serum (Gibco-Thermo Fisher Scientific, Waltham, MA, USA), L-glutamine, penicillin, and streptomycin (Euroclone, Milan, Italy), and grown at 37 °C in a humidified 5% CO2 atmosphere. The inhibition of cell proliferation was measured by colorimetric MTT assay [51] and the concentration at which cellular growth is inhibited by 50% (GI50) was determined. Briefly, cells were seeded into 96-well plates at a density of 2000 cells/well. The following day, cells were treated with the indicated compounds and analyzed for cell viability after 48 h. 5 mg/mL thiazolyl blue tetrazolium bromide (Sigma-Aldrich, St. Louis, MO, USA) was added to each well at a final concentration of 0.5 mg/mL and the plates were incubated at 37 °C for 2 h. Medium containing unconverted MTT was removed and 100 µL MTT solvent (4 mM HCl, 0.1% NP-40 in isopropyl alcohol) was added to each well. The plate was gently rotated on an orbital shaker in the dark for 15 min, before the measurements of absorbance at 570 nm. […]

DU145 cells [3] = assay: MTT cell viability assay, DU145; assay type: cell-based, Human; conditions: Homo sapiens, DU-145; 48 h treatment, MTT
Experimental: (§3) Human prostate cancer PC3 cells (CRL 1435, ATCC, Manassas, VA, USA) were grown in Ham’s F12 nutrient medium, human prostate cancer DU145 cells (HTB-81, ATCC, Manassas, VA, USA) in RPMI 1640 medium and human colorectal carcinoma HCT116 cells (CCL-247, ATCC, Manassas, VA, USA) in IMDM medium. All media (Biowest, Nuaillé, France) were supplemented with 10% Foetal Bovine Serum (Gibco-Thermo Fisher Scientific, Waltham, MA, USA), L-glutamine, penicillin, and streptomycin (Euroclone, Milan, Italy), and grown at 37 °C in a humidified 5% CO2 atmosphere.
(§4) DMSO was used as control.
as §1

DU145 cells [4] = assay: Anchorage-independent colony formation assay, DU145; assay type: cell-based, Human; conditions: DU145, 10 µM
Experimental: For anchorage-independent colony formation assay, 0.6% low melt agarose gel with 10% FBS in appropriate complete cell growth medium was prepared and added to the wells of a twelve-well culture dish as a base agar. […] PC3 and DU145 cells were allowed to grow at 37 °C for three weeks (PC3) or five weeks (DU145). The effect of the drugs on anchorage-independent growth was determined by colony growth. Colonies were stained with 0.07% crystal violet and formed colonies were imaged. The numbers of colonies with radius ≥ 7 pixels were counted with automated colony counter (OpenCFU 3.9.0) and average number of colonies was plotted against drug concentrations. Colony numbers were normalized as a percentage of colonies formed following DMSO treatment.

PC3 cells [5] = assay: Cell cycle analysis (propidium iodide), PC3; assay type: cell-based, Human; conditions: PC3, 48 h at GI50 dose
Experimental: Cells were harvested after 48 h drug treatments and DNA distribution analysis of cells stained with propidium iodide solution (propidium iodide 25 µg/mL, Na-Citrate 3.4 mM, NaCl 9.65 mM, NP-40 0.03%) was performed by an Epics cytofluorimeter (Beckman Coulter Srl, Milan, Italy).

DU145 cells [6] = assay: RT-qPCR gene transcription, DU145; assay type: cell-based, Human; conditions: DU145, 48 h at GI50 dose
Experimental: Data are presented as relative transcript levels, normalized with RPL21 housekeeping gene, with DMSO levels arbitrarily set at 1.
RNA was extracted from cells using RNeasy kit (Qiagen, Venlo, The Netherlands) and reversed transcribed with a Moloney murine leukemia virus reverse transcriptase (Promega, Madison, WI, USA). Quantitative real-time PCRs were performed using SsoAdvanced Universal SYBR Green Supermix (Bio-Rad, Hercules, CA, USA) on a Bio-Rad CFX Connect™ real-time PCR detection system. Primer sequences are available upon request. The housekeeping gene Rpl21 was used as a loading control. The relative fold change enrichments of real-time PCR samples were calculated with the formula 2^−(ΔΔCt), where −(ΔΔCt) = −[(Ct target − Ct Rpl21)treated − (Ct target − Ct Rpl21)DMSO].

DU145 cells [7] = assay: Western blot of total cellular lysates, DU145; assay type: cell-based, Human; conditions: DU145, 48 h at GI50 dose
Experimental: Actin was used as loading control. Whole-cell protein extracts were prepared by resuspending cells into 1X SDS sample buffer (25 mM Tris-HCl pH 6.8, 1.5 mM EDTA, 20% glycerol, 2% SDS, 5% β-mercaptoethanol, 0.0025% Bromophenol blue). Equivalent amounts of cellular extracts were resolved by SDS-PAGE, electrotransferred to PVDF membrane (GE Healthcare Italia, Milan, Italy) and immunoblotted with the following primary antibodies: anti-phospo-H2AX (sc-101696), anti-p53 (DO1) (sc-126), anti-actin ([MUT]) (sc-1616) and anti-PARP (sc-8007) antibody from Santa Cruz Biotecnology, Inc, Dallas, TX, USA.; phospho-specific AKT antibody S473 (#9018) and T308 (#9275), Akt antibody (#9272 and #2967), phospho-specific ERK1/2 antibody T202/Y204 (#4370), ERK1/2 antibody (#4669), phospho-specific p38 MAPK antibody T180/Y182 (#9211), and p38 antibody (#9212) were purchased from Cell Signaling Technologies, Danvers, MA, USA. Membranes were blotted and scanned with Bio-Rad ChemiDocTM Touch Imaging System (Bio-Rad, Hercules, CA, USA), using chemiluminescent detection reagents from Cyanagen, Bologna, Italy (Westar ηC and Supernova HRP substrates for Western blotting).

DU145 cells [8] = assay: K3F21/docetaxel co-administration, MTT and CompuSyn, DU145; assay type: cell-based, Human; conditions: 48 h
Experimental: as §1, §2

PC3 cells [9] = assay: MTT cell viability assay, PC3; assay type: cell-based, Human; conditions: Homo sapiens, PC-3, 48 h, 48 h treatment, MTT
Experimental: as §3, §4, §1

## COc1cc(/C=C/C(=O)C(CCCN2C(=O)c3ccccc3C2=O)C(=O)/C=C/c2ccc(O)c(OC)c2)ccc1O [K3F21]
PC3 cells [1]
  cell growth of co-administration compared to single administration: none of the evaluated K3F21/DTX combinations affected cell growth
[2]
  lipophilicity: high
HCT116 cells
  anti-proliferative activity compared to the other derivatives: most active molecule
DU145 cells [3]
  GI50: 8.6 µM
DU145 cells [4]
  decrease in colony formation, anchorage-independent: up to 95%
PC3 cells [5]
  effect on cell cycle distribution (in words): doubled the percentage of G2/M cells
DU145 cells [6]
  EGFR expression: reduced
  Noxa transcription: induced
  Puma transcription: increased exclusively following K3F21 administration
  transcription of CDK inhibitors p21 and p27: raised only after K3F21 treatment
DU145 cells [6]; compared to curcumin and control cells
  transcription of Cdc2, CyclinB1, CyclinB2, and CyclinD1 cell cycle genes: general decrease, though not always significant
DU145 cells [7]
  ERK1/2 phosphorylation: increased
  PARP-1 cleavage (apoptotic cell death): activation of apoptotic cell death
  phospho-p38 expression: no changes were observed
  γH2AX expression (marker of DNA damage): triggered DNA damage
DU145 cells [8]; DU145, K3F21 and DTX 20nM
  cell viability of co-administration compared to independent treatments: significant decrease in cell viability
DU145 cells [8]; DU145, K3F21 co-administered with DTX 20nM
  Combination Index (CI): 0.8
PC3 cells [9]
  GI50: 7.9 µM
